This note sets out measurements from PubChem BioAssay AID588503 (Sanford-Burnham Center for Chemical Genomics, 2011).

The structures appear in SMILES notation. Where “and” joins values, the source holds several entries; their conditions need not be identical. Identical values can stand only once. Calls of active or inactive are those of the source.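 How the source made its calls: active means compounds whose mean half-maximal effective concentration EC50 is at most 20 µM; inactive means the rest.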

In this test the target is G-protein coupled receptor 35 (Homo sapiens) (UniProt Q9HC97). Briefly: GPR35 activation by analogs, SAR follow-up, selectivity assay for NTR1 agonist project, imaging, U2OS, beta-arrestin-GFP (AID 588503). To be noted: GPR35-U2OS beta-arrestin-GFP translocation imaging.
G-protein coupled receptor 35 (Homo sapiens), sequence (Q9HC97 whole entry, looked up): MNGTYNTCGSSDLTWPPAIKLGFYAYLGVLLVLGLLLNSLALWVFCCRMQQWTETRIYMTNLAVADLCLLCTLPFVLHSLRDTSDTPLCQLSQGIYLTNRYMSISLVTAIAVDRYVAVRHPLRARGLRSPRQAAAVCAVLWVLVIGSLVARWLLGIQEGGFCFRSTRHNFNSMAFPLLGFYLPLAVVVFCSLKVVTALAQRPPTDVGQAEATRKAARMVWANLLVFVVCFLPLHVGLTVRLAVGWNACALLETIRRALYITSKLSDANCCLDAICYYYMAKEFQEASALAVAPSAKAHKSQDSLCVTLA
As for `COc1cc2c3nnc(-c4ccccc4)c-3cn(Cc3ccccc3)c2cc1OC`, the EC50 result is “inactive”.
Under `CN(C)S(=O)(=O)c1ccc(-c2csc(N/N=C/c3ccco3)n2)cc1` stands > 40 µM (inactive).
Under `COc1cc2c3nnc(-c4ccc(F)cc4)c-3cn(Cc3ccccc3)c2cc1OC` stands 9.82 µM; under `COc1cc2c3nnc(-c4ccc(F)cc4)c-3cn(Cc3ccc(F)cc3)c2cc1OC`, 13.6 µM; under `COc1cc2nc(C3CCC3)nc(N3CCN(c4ccccc4C)CC3)c2cc1OC`, > 40 µM (inactive).
Under `COc1cc2nc(-c3ccccc3)nc(N3CCN(c4ccccc4OC)CC3)c2cc1OC` stands > 40 µM (inactive); under `COc1cc2c3nnc(-c4ccc(C)c(C)c4)c-3cn(Cc3ccccc3)c2cc1OC`, “inactive”.
Take `CCN(CC)S(=O)(=O)c1ccc(-c2csc(N/N=C/c3ccco3)n2)cc1`: the EC50 result was “inactive”.
Turning to `COc1cccc(OC)c1-c1cc(C(=O)N[C@@H](CC(C)C)C(=O)O)nn1-c1ccnc2cc(Cl)ccc12`, the EC50 is > 40 µM (inactive).
Under `CCOc1ccc(-c2nnc3c4cc(OC)c(OC)cc4n(Cc4ccccc4)cc2-3)cc1` stands “inactive”; under `Cc1ccc(C)c(-n2ncc3c(N4CCN(c5ccccc5)CC4)ncnc32)c1`, > 40 µM (inactive); under `COc1ccccc1-c1cc(C(=O)N[C@@H](CC(C)C)C(=O)O)nn1-c1ccnc2cc(Cl)ccc12`, > 40 µM (inactive).
Regarding `COc1cc2c3nnc(-c4ccc(F)cc4)c-3cn(Cc3ccc(C)cc3)c2cc1OC`, the EC50 is 8.57 µM and 7.58 µM.
Under `COc1cc2c3nnc(-c4ccc(Cl)cc4)c-3cn(Cc3ccc(F)cc3)c2cc1OC` stands 8.32 µM.
Under `COc1cccc(OC)c1-c1nc(C(=O)N[C@@H](CC(C)C)C(=O)O)cn1-c1ccnc2ccccc12` stands > 40 µM (inactive); under `COc1cc2c3nnc(-c4ccc(F)cc4)c-3cn(Cc3cccc(C)c3)c2cc1OC`, 6.07 µM.
Under `COc1cc2c3nnc(-c4ccc(C)cc4)c-3cn(Cc3ccc(F)cc3)c2cc1OC` stands 8.31 µM; under `CCOc1ccc(-c2nnc3c4cc(OC)c(OC)cc4n(Cc4ccc(C)cc4)cc2-3)cc1`, > 40 µM (inactive).
On to `CCOc1ccc(-c2nnc3c4cc(OC)c(OC)cc4n(Cc4ccc(F)cc4)cc2-3)cc1`, for which the EC50 entry is “inactive”.
Under `Cc1ccc(-n2ncc3c(N4CCN(c5ccccc5F)CC4)ncnc32)c(C)c1` stands > 40 µM (inactive).
Under `COc1ccc(Cn2c(SCc3ccccc3C)nc3cc(OC)c(OC)cc3c2=N)cc1Cl` stands > 40 µM (inactive); under `Clc1ccccc1-n1ncc2c(N3CCN(c4ccccc4)CC3)ncnc21`, > 40 µM (inactive).
Consider `Cc1cc(Cl)ccc1-n1ncc2c(N3CCN(c4ccccc4)CC3)ncnc21`, for which the EC50 is > 40 µM (inactive).
Under `COc1ccc(Cn2c(SCc3cccc(C(F)(F)F)c3)nc3cc(OC)c(OC)cc3c2=N)cc1Cl` stands > 40 µM (inactive); under `COc1cc2nc(C3CCC3)nc(N3CCN(c4ccccc4OC)CC3)c2cc1OC`, > 40 µM (inactive).
Under `Cc1ccc(Cn2cc3c(-c4ccc(F)cc4)nnc-3c3cc4c(cc32)OCO4)cc1` stands > 40 µM (inactive); under `COc1ccc(Cn2c(SCc3cc(C)ccc3C)nc3cc(OC)c(OC)cc3c2=N)cc1Cl`, > 40 µM (inactive).
For the molecule `COc1ccc(-c2nnc3c4cc(OC)c(OC)cc4n(Cc4ccc(C)cc4)cc2-3)cc1`, the EC50 was 6.26 µM.
Under `COc1cccc(N2CCN(c3ncnc4c3cnn4-c3ccc(C)cc3C)CC2)c1` stands > 40 µM (inactive).
In the case of `COc1cc2c3nnc(-c4ccc(C)cc4)c-3cn(Cc3ccc(C)cc3)c2cc1OC`, the EC50 is 8.86 µM.
Under `COc1cccc(OC)c1-c1nc(C(=O)N[C@@H](CC(C)C)C(=O)O)cn1-c1cccc2ccccc12` stands > 40 µM (inactive); under `COc1cc2c3nnc(-c4ccc(Cl)cc4)c-3cn(Cc3ccc(C)cc3)c2cc1OC`, > 40 µM (inactive).
Under `COc1ccc(Cn2c(SCc3ccccc3)nc3cc(OC)c(OC)cc3c2=N)cc1Cl` stands > 40 µM (inactive).
Under `CC(C)C[C@H](NC(=O)c1cn(-c2ccnc3cc(Cl)ccc23)c(-c2c(Cl)cccc2Cl)n1)C(=O)O` stands > 40 µM (inactive).
In the case of `COc1cc2c3nnc(-c4ccc(Cl)cc4)c-3cn(Cc3ccccc3)c2cc1OC`, the EC50 was 10.5 µM.
Under `Cc1ccc(-n2ncc3c(N4CCN(c5ccccc5)CC4)ncnc32)c(C)c1` stands > 40 µM (inactive); under `COc1ccccc1N1CCN(c2ncnc3c2cnn3-c2ccc(C)cc2C)CC1`, > 40 µM (inactive); under `O=S(=O)(c1ccc(-c2csc(N/N=C/c3ccco3)n2)cc1)N1CCCC1`, > 40 µM (inactive).
`COc1cccc(OC)c1-c1nc(C(=O)N[C@@H](CC(C)C)C(=O)O)cn1-c1ccnc2cc(Cl)ccc12`: the EC50 was > 40 µM (inactive).
Under `COc1ccc(Cn2c(SCc3ccc(C)cc3)nc3cc(OC)c(OC)cc3c2=N)cc1Cl` stands “inactive”.
Under `Cc1cccc(C)c1-c1nc(C(=O)N[C@@H](CC(C)C)C(=O)O)cn1-c1ccnc2cc(Cl)ccc12` stands > 40 µM (inactive); under `CN(C)S(=O)(=O)c1ccc(-c2csc(N/N=C/c3cccs3)n2)cc1`, > 40 µM (inactive).

The EC50 is the concentration at which the effect is half-maximal.
